# Results reported in paper PMC8259865, “Design and green synthesis of novel quinolinone derivatives of potential anti-breast cancer activity against MCF-7 cell line targeting multi-receptor tyrosine kinases” (Journal of Enzyme Inhibition and Medicinal Chemistry, 2021).
# “Also recorded” adds a separate entry of the source.
# Columns and labels:
# [1] = tested on: human breast cancer MCF-7 cell line; experiment: MTT cytotoxicity assay against MCF-7 breast cancer cells; format: cell-based; conditions: for IC50: Homo sapiens, MCF7, MTT assay, MCF-7 cells, average of at least three independent experiments, read-out: Anticancer activity against MCF-7 cells IC50 mean ± SD
# Source text: MTT assay was used to evaluate the in vitro cytotoxicity of the new compounds against breast cancer cell lines MCF-7[38]. More details are present in the Supplementary file.
# S1: In vitro cytotoxicity experiment
# MTT assay was used to evaluate the in vitro cytotoxicity of the new compounds against breast cancer cell lines MCF-7 [39]. MTT assay depends on the reduction of the soluble 3-(4,5-methyl-2-thiazolyl)-2,5-diphenyl-2H-tetrazolium bromide (MTT) into a blue purple formazan product, mainly by mitochondrial reductase activity inside the living cells. The cells used in cytotoxicity […]
# at 37 °C in a 5% CO 2 incubator. After 12 h, the test sampl e (2 μL) was added to the cells (2 × 10 4) in 96-well plates and cultured at 37 ◦C for 3 days. The cultured cells were mixed with 20 μL of MTT solution and incubated for 4 h at 37 °C. The supernatant was carefully removed from each well and 100 μL of DMSO we re added to each well to dissolve the formazan crystals which were formed by the cellular reduction of MTT. […]
# normal WI38 cells = experiment: MTT assay against normal WI38 cells (safety profile); format: cell-based, human; conditions: for IC50: Homo sapiens, WI-38, MTT assay, normal WI38 cells derived from lung tissues, read-out: IC50 against the normal WI38 cells mean ± SD; for IC50 against WI38 cells, fold higher than IC50 of staurosporine: relative to staurosporine; for IC50 against WI38 cells, fold higher than IC50 against cancer (MCF-7) cells: WI38 vs MCF-7
# Source text: One of the characteristics differentiating different anticancer agents from each other is the recurrence and severity of their side effects to the normal cells at their therapeutic doses. […].
# HER-2 = HER-2 (Homo sapiens, UniProt P04626); experiment: In vitro kinase inhibition assay, HER-2 (ADP-Glo Kinase Assay)
# Chain of HER-2 (P04626 23-1255): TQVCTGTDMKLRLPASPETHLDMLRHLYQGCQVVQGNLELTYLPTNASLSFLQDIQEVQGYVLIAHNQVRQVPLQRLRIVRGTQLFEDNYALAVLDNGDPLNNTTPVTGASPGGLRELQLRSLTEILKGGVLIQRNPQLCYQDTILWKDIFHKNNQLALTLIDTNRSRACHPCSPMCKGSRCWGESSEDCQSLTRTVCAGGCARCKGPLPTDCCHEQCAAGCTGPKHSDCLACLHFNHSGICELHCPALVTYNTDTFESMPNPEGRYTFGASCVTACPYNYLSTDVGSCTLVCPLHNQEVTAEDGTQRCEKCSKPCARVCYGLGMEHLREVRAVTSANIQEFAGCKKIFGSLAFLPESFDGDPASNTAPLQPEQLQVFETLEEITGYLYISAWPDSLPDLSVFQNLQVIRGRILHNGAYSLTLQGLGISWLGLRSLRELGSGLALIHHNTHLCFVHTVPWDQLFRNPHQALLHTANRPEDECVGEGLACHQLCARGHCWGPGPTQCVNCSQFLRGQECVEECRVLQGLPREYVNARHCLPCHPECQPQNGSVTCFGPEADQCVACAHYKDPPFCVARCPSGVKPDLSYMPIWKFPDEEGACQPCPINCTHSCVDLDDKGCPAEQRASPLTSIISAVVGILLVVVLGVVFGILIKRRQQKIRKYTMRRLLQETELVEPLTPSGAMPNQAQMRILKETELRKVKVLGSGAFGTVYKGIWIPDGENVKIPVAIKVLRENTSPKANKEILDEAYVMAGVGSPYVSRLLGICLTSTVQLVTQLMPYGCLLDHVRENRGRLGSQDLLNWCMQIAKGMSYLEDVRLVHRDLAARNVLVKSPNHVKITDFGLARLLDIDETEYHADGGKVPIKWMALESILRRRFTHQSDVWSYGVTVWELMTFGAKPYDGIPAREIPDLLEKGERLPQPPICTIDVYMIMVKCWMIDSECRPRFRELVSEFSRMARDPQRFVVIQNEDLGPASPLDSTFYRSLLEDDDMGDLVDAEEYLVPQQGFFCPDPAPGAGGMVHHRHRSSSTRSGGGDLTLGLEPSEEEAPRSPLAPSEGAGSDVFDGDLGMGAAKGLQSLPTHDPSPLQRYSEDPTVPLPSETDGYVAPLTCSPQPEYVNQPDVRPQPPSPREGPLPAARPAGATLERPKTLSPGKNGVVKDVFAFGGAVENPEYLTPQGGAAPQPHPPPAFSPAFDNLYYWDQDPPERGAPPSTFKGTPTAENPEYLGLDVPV
# Source text: (§2) The procedure of the used kits was done according to the manufacturer, s instructions.
# (§3) Which are: EGFR, human epidermal growth factor receptor (HER2), PDGFR-α, and VEGFR-2.
# MCF-7 cells [2] = experiment: Cell cycle analysis by flow cytometry; format: cell-based, human; conditions: for %G0–G1 / %G2/M / %Pre-G1 / %S: compound at its IC50 concentration, 24 h
# Experimental: (§1) Cell cycle analysis and apoptosis investigation were carried out by flow cytometry.[39]^,[40] […] After treatment with the tested compound, for 24 h, cell pellets were collected and centrifuged (300 g, 5 min).
# The induction of apoptosis is one of the most crucial tools that confirm the effectiveness of cancer therapy. Cell cycle checkpoints are G1 (restriction or start), S ([…]), and G2/M. One of the main functions of the anticancer therapeutics is stoppage of the cell division at these checkpoints.[51] […] The cells were stained with Annexin V/PI and examined using flow cytometry procedure.
# PDGFR-α = experiment: In vitro kinase inhibition assay, PDGFR-α; conditions: for IC50: read-out: PDGFR-α IC50
# Source text: as §2, §3
# EGFR = EGFR (Homo sapiens, UniProt P00533); experiment: In vitro kinase inhibition assay, EGFR (Abcam Human In cell ELISA Kit)
# Chain of EGFR (P00533 25-1210): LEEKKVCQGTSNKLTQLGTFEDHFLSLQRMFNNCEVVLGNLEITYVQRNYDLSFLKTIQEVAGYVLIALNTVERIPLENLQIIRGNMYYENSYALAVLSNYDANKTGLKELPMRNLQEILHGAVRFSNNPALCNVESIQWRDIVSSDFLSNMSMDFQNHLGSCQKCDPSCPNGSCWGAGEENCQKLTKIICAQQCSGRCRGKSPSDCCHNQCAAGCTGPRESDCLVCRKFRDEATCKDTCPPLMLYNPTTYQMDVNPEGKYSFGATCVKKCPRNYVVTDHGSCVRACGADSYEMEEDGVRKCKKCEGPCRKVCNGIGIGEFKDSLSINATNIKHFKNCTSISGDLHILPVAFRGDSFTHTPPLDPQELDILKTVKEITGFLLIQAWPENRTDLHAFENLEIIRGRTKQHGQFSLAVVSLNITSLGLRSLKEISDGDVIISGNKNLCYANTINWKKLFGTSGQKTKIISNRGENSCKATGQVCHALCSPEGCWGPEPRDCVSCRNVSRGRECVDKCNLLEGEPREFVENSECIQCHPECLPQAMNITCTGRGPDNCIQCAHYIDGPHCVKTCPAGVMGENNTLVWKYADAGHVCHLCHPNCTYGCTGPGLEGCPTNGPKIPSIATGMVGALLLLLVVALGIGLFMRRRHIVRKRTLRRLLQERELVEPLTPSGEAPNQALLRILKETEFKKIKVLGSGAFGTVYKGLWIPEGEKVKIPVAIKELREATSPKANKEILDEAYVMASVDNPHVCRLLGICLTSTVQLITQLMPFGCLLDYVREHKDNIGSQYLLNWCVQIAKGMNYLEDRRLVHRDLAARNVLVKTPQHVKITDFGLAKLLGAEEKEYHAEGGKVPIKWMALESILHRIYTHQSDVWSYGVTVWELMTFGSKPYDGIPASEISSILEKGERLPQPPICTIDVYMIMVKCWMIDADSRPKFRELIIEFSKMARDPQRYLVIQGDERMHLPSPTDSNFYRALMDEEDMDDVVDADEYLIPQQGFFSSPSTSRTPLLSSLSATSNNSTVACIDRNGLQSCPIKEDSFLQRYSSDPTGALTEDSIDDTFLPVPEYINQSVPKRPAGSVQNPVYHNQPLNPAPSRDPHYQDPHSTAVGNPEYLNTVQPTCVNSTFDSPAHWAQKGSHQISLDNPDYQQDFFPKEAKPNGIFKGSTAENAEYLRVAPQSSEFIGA
# Source text: as §2, §3
# MCF-7 cells [3] = experiment: Annexin-V/PI apoptosis assay by flow cytometry; format: cell-based, human; conditions: compound at its IC50 concentration, 24 h
# Experimental: as §1
# Flow cytometry method[39]^,[49] has been used to detect the corresponding red (PI) and green (FITC) fluorescence. It has been noted that there was an increment in the percentages of the late apoptosis produced by the evaluated compounds 4b and 4j from 0.13% (control DMSO/MCF-7 cells) to 13.81% and 22.03%, respectively. Also, the tested compounds produced early apoptotic effects of 6.15% and 3.27% compared to 0.58% of the untreated MCF-7 cell with necrosis percent of 4.37% and 9.22%, respectively, vs. 0.66% produced by the DMSO control (Figures 4 and 5).
# VEGFR-2 = VEGFR-2 (Homo sapiens, UniProt P35968); experiment: In vitro kinase inhibition assay, VEGFR-2 (KDR Kinase Assay Kit)
# Chain of VEGFR-2 (P35968 20-1356): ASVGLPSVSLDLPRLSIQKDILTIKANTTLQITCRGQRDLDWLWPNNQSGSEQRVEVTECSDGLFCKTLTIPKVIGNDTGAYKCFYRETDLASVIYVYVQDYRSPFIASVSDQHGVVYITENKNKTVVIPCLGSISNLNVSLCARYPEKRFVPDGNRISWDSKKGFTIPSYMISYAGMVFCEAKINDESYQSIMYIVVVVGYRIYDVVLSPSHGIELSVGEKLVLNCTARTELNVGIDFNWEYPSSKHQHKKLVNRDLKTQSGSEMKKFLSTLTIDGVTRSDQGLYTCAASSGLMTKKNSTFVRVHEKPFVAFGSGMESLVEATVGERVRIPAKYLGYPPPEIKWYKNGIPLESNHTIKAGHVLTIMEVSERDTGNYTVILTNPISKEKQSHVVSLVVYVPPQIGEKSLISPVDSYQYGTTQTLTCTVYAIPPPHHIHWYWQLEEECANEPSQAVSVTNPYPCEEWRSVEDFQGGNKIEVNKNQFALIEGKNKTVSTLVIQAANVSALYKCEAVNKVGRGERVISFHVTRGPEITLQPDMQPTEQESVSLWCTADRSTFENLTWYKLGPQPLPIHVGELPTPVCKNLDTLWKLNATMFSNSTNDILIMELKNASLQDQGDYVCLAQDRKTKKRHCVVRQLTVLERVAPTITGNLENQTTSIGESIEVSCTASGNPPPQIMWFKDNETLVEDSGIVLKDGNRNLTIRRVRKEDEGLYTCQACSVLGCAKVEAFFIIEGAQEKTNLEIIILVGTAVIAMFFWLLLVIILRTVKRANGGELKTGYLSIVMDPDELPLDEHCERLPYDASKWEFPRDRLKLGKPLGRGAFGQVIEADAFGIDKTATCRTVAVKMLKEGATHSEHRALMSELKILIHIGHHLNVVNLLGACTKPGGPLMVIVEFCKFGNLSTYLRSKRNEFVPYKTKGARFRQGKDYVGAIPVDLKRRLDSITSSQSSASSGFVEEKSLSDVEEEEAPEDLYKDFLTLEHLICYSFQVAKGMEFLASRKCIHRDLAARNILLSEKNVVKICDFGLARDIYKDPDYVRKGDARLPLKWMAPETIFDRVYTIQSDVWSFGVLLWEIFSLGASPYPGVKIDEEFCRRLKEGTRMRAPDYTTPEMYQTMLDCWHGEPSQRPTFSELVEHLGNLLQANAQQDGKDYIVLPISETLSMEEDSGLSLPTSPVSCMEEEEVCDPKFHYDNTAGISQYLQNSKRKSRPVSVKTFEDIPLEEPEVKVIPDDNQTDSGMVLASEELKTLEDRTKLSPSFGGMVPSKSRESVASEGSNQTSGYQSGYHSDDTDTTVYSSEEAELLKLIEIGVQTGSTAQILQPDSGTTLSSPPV
# Source text: as §2, §3
smiles,measurement,setting,value
"COC(=O)C1=C(C)NC2=C(C(=O)CC(C)(C)C2)C1c1ccc(S(=O)(=O)c2ccccc2)cc1 (stereo not drawn) [Compound 4a, Methyl 2,7,7-trimethyl-5-oxo-4–(4-(phenylsulfonyl)phenyl)-1,4,5,6,7,8-hexahydroquinoline-3-carboxylate]",IC50,[1],103 ± 13 nM
"CCOC(=O)C1=C(C(F)(F)F)NC2=C(C(=O)CC(C)(C)C2)C1c1ccc(S(=O)(=O)c2ccccc2)cc1 (stereo not drawn) [Compound 4b, Ethyl 7,7-dimethyl-5-oxo-4–(4-(phenylsulfonyl)phenyl)-2-(trifluoromethyl)-1,4,5,6,7,8-hexahydroquinoline-3-carboxylate]",IC50,[1],2 ± 1 nM
same,fold more potent than staurosporine against MCF-7,"[1]; ratio of IC50 values, MCF-7",about 2.5 fold
same,IC50,normal WI38 cells,45 ± 13 nM
same,"IC50 against WI38 cells, fold higher than IC50 of staurosporine",normal WI38 cells,about 3 fold
same,"IC50 against WI38 cells, fold higher than IC50 against cancer (MCF-7) cells",normal WI38 cells,24 fold
same,IC50,HER-2,0.3 ± 0.05 nM
same,%G0–G1,MCF-7 cells [2],45.26%
same,%G2/M,MCF-7 cells [2],18.03%
same,%Pre-G1,MCF-7 cells [2],24.33%
same,%S,MCF-7 cells [2],36.71%
same,IC50,PDGFR-α,0.21 ± 0.04 nM
same,IC50,EGFR,0.11 ± 0.03 nM
same,early apoptotic effect,MCF-7 cells [3],6.15%
same,late apoptosis percentage,MCF-7 cells [3],13.81%
same,necrosis percent,MCF-7 cells [3],4.37%
same,IC50,VEGFR-2,1.05 ± 0.02 nM
same,"VEGFR-2 inhibitory effect, fold less than Sorafenib",VEGFR-2,about 6.2 fold
"CCOC(=O)C1=C(N)NC2=C(C(=O)CC(C)(C)C2)C1c1ccc(S(=O)(=O)c2ccccc2)cc1 (stereo not drawn) [Compound 4c, Ethyl 2-amino-7,7-dimethyl-5-oxo-4–(4-(phenylsulfonyl)phenyl)-1,4,5,6,7,8-hexahydroquinoline-3-carboxylate]",IC50,[1],15 ± 2 nM
"CC1(C)CC(=O)C2=C(C1)NC(N)=C(C(=O)c1ccccc1)C2c1ccc(S(=O)(=O)c2ccccc2)cc1 (stereo not drawn) [Compound 4d, 2-Amino-3-benzoyl-7,7-dimethyl-4–(4-(phenylsulfonyl)phenyl)-4,6,7,8-tetrahydroquinolin-5(1H)-one]",IC50,[1],7 ± 1 nM
same,fold less potent than staurosporine against MCF-7,"[1]; ratio of IC50 values, MCF-7",1.4 fold
"Cc1ccc(C(=O)C2=C(N)NC3=C(C(=O)CC(C)(C)C3)C2c2ccc(S(=O)(=O)c3ccccc3)cc2)cc1 (stereo not drawn) [Compound 4e, 2-Amino-7,7-dimethyl-3–(4-methylbenzoyl)-4–(4-(phenylsulfonyl)phenyl)-4,6,7,8-tetrahydroquinolin-5(1H)-one]",IC50,[1],4 ± 2 nM
same,IC50,normal WI38 cells,14.9 ± 3 nM
same,"IC50 against WI38 cells, fold higher than IC50 of staurosporine",normal WI38 cells,approximately equal
same,"IC50 against WI38 cells, fold higher than IC50 against cancer (MCF-7) cells",normal WI38 cells,4 fold
"CC1(C)CC(=O)C2=C(C1)NC(N)=C(C(=O)c1ccc(Br)cc1)C2c1ccc(S(=O)(=O)c2ccccc2)cc1 (stereo not drawn) [Compound 4f, 2-Amino-3–(4-bromobenzoyl)-7,7-dimethyl-4–(4-(phenylsulfonyl)phenyl)-4,6,7,8-tetrahydroquinolin-5(1H)-one]",IC50,[1],27 ± 14 nM
"COC(=O)C1=C(C)NC2=C(C(=O)CC(C)(C)C2)C1c1ccc(S(=O)(=O)c2ccc(C)cc2)cc1 (stereo not drawn) [Compound 4g, Methyl 2,7,7-trimethyl-5-oxo-4–(4-tosylphenyl)-1,4,5,6,7,8-hexahydroquinoline-3-carboxylate]",IC50,[1],27 ± 3 nM
"CCOC(=O)C1=C(C(F)(F)F)NC2=C(C(=O)CC(C)(C)C2)C1c1ccc(S(=O)(=O)c2ccc(C)cc2)cc1 (stereo not drawn) [Compound 4h, Ethyl 7,7-dimethyl-5-oxo-4–(4-tosylphenyl)-2-(trifluoromethyl)-1,4,5,6,7,8-hexahydroquinoline-3-carboxylate]",IC50,[1],41 ± 6 nM
"CCOC(=O)C1=C(N)NC2=C(C(=O)CC(C)(C)C2)C1c1ccc(S(=O)(=O)c2ccc(C)cc2)cc1 (stereo not drawn) [Compound 4i, Ethyl 2-amino-7,7-dimethyl-5-oxo-4–(4-tosylphenyl)-1,4,5,6,7,8-hexahydroquinoline-3-carboxylate]",IC50,[1],23 ± 3 nM
"Cc1ccc(S(=O)(=O)c2ccc(C3C(C(=O)c4ccccc4)=C(N)NC4=C3C(=O)CC(C)(C)C4)cc2)cc1 (stereo not drawn) [Compound 4j, 2-Amino-3-benzoyl-7,7-dimethyl-4–(4-tosylphenyl)-4,6,7,8-tetrahydroquinolin-5(1H)-one]",IC50,[1],3 ± 5 nM
same,IC50,normal WI38 cells,48 ± 8 nM
same,"IC50 against WI38 cells, fold higher than IC50 of staurosporine",normal WI38 cells,about 3 fold
same,"HER-2 inhibition, folds more potent than Sorafenib",HER-2,about 1.6 fold
same,IC50,HER-2,0.17 ± 0.02 nM
same,cell cycle effect in MCF-7 cells,MCF-7 cells [2],cell cycle disruption at G2/M phase; also recorded: cell cycle arrest at G2/M phase
same,%G0–G1,MCF-7 cells [2],36.99%
same,%G2/M,MCF-7 cells [2],31.17%
same,%Pre-G1,MCF-7 cells [2],34.52%
same,%S,MCF-7 cells [2],31.84%
same,"PDGFR-α inhibition, fold more than sorafenib",PDGFR-α,1.9 fold
same,IC50,PDGFR-α,0.07 ± 0.01 nM
same,IC50,EGFR,0.07 ± 0.02 nM
same,early apoptotic effect,MCF-7 cells [3],3.27%
same,late apoptosis percentage,MCF-7 cells [3],22.03%
same,necrosis percent,MCF-7 cells [3],9.22%
same,IC50,VEGFR-2,0.3 ± 0.06 nM
same,"VEGFR-2 inhibitory effect, fold less than Sorafenib",VEGFR-2,~1.8 fold
"Cc1ccc(C(=O)C2=C(N)NC3=C(C(=O)CC(C)(C)C3)C2c2ccc(S(=O)(=O)c3ccc(C)cc3)cc2)cc1 (stereo not drawn) [Compound 4k, 2-Amino-7,7-dimethyl-3–(4-methylbenzoyl)-4–(4-tosylphenyl)-4,6,7,8-tetrahydroquinolin-5(1H)-one]",IC50,[1],4 ± 1 nM
same,IC50,normal WI38 cells,17.6 ± 9 nM
same,"IC50 against WI38 cells, fold higher than IC50 of staurosporine",normal WI38 cells,approximately equal
same,"IC50 against WI38 cells, fold higher than IC50 against cancer (MCF-7) cells",normal WI38 cells,4 fold
"Cc1ccc(S(=O)(=O)c2ccc(C3C(C(=O)c4ccc(Br)cc4)=C(N)NC4=C3C(=O)CC(C)(C)C4)cc2)cc1 (stereo not drawn) [Compound 4l, 2-Amino-3–(4-bromobenzoyl)-7,7-dimethyl-4–(4-tosylphenyl)-4,6,7,8-tetrahydroquinolin-5(1H)-one]",IC50,[1],7 ± 1 nM
same,fold less potent than staurosporine against MCF-7,"[1]; ratio of IC50 values, MCF-7",1.4 fold
"CN[C@@H]1C[C@H]2O[C@@](C)([C@@H]1OC)n1c3ccccc3c3c4c(c5c6ccccc6n2c5c31)C(=O)NC4 [Staurosporine, reference compound]",IC50,normal WI38 cells,13 ± 2 nM
